Measurements as given in PubChem BioAssay AID256 (DTP/NCI, 2004).
Where “and” joins values, the source holds several entries; their conditions need not be identical. Equal values may be shown once. Inconclusive results and toxic doses are left out. Rule for the calls: active = survival T/C of 150% or more; inactive = T/C below 125% in these data.

Test system: CD2F1 mice, L1210 leukemia ip, survival T/C
Assay: NCI In Vivo Anticancer Drug Screen. Data for tumor model L1210 Leukemia (intraperitoneal) in CD2F1 (CDF1) mice
Conditions: higher = longer survival
How it was run: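 Activity against a transplanted murine tumor was judged by comparing the compound group with a vehicle group. The outcome in the treated animals was divided by that in the controls.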

[1] = endpoint: mean survival time, dose: 100.0 mg/kg/injection, schedule: Q01DX009 (ip), vehicle: saline
[2] = endpoint: mean survival time, dose: 25.0 mg/kg/injection, schedule: Q01DX009 (ip), vehicle: saline with Tween-80
[3] = endpoint: mean survival time, dose: 50.0 mg/kg/injection, schedule: Q01DX009 (ip), vehicle: saline with Tween-80
[4] = endpoint: mean survival time, dose: 100.0 mg/kg/injection, schedule: Q01DX009 (ip), vehicle: saline with Tween-80
[5] = endpoint: mean survival time, dose: 100.0 mg/kg/injection, schedule: Q04DX003 (ip), vehicle: saline with Tween-80
[6] = endpoint: mean survival time, dose: 100.0 mg/kg/injection, schedule: Q04DX003 (ip), vehicle: saline
[7] = endpoint: mean survival time, dose: 100.0 mg/kg/injection, schedule: Q01DX001 (ip), vehicle: saline with Tween-80
[8] = endpoint: mean survival time, dose: 200.0 mg/kg/injection, schedule: Q01DX001 (ip), vehicle: saline with Tween-80
[9] = endpoint: mean survival time, dose: 400.0 mg/kg/injection, schedule: Q01DX001 (ip), vehicle: saline with Tween-80
[10] = endpoint: mean survival time, dose: 200.0 mg/kg/injection, schedule: Q04DX003 (ip), vehicle: saline with Tween-80
[11] = endpoint: mean survival time, dose: 400.0 mg/kg/injection, schedule: Q04DX003 (ip), vehicle: saline with Tween-80
[12] = endpoint: mean survival time, dose: 200.0 mg/kg/injection, schedule: Q01DX009 (ip), vehicle: saline with Tween-80

Measured: T/C

COc1cc2ccnc(Cc3ccc4c(c3)OCO4)c2cc1OC
inactive: [1] 94 % of control | endpoint: mean survival time, dose: 100.0 mg/kg/injection, schedule: Q04DX003 (ip), vehicle: saline sonified 95 % of control | endpoint: mean survival time, dose: 200.0 mg/kg/injection, schedule: Q01DX009 (ip), vehicle: saline 95 % of control | endpoint: mean survival time, dose: 200.0 mg/kg/injection, schedule: Q04DX003 (ip), vehicle: saline sonified 105 % of control | endpoint: mean survival time, dose: 400.0 mg/kg/injection, schedule: Q01DX009 (ip), vehicle: saline 95 % of control | endpoint: mean survival time, dose: 400.0 mg/kg/injection, schedule: Q04DX003 (ip), vehicle: saline sonified 93 % of control

Nc1nc2ncc(CSc3ccc(C(=O)NC(CCC(=O)O)C(=O)O)cc3)nc2c(=O)[nH]1 (stereo not drawn)
inactive: endpoint: mean survival time, dose: 1.0 mg/kg/injection, schedule: Q01DX009 (ip), vehicle: sodium bicarbonate 107 % of control | endpoint: mean survival time, dose: 2.0 mg/kg/injection, schedule: Q01DX009 (ip), vehicle: saline with Tween-80 101 % of control | endpoint: mean survival time, dose: 2.0 mg/kg/injection, schedule: Q01DX009 (ip), vehicle: sodium bicarbonate 111 % of control | endpoint: mean survival time, dose: 4.0 mg/kg/injection, schedule: Q01DX009 (ip), vehicle: saline with Tween-80 101 % of control | endpoint: mean survival time, dose: 4.0 mg/kg/injection, schedule: Q01DX009 (ip), vehicle: sodium bicarbonate 124 % of control | endpoint: mean survival time, dose: 5.4 mg/kg/injection, schedule: Q01DX009 (ip), vehicle: sodium bicarbonate 90 % of control | endpoint: mean survival time, dose: 8.0 mg/kg/injection, schedule: Q01DX009 (ip), vehicle: saline with Tween-80 104 % of control | endpoint: mean survival time, dose: 8.0 mg/kg/injection, schedule: Q01DX009 (ip), vehicle: sodium bicarbonate 97 % of control | endpoint: mean survival time, dose: 12.0 mg/kg/injection, schedule: Q01DX009 (ip), vehicle: sodium bicarbonate 95 % of control | endpoint: mean survival time, dose: 16.0 mg/kg/injection, schedule: Q01DX009 (ip), vehicle: saline with Tween-80 97 % of control | endpoint: mean survival time, dose: 16.0 mg/kg/injection, schedule: Q01DX009 (ip), vehicle: sodium bicarbonate 113 % of control | endpoint: mean survival time, dose: 32.0 mg/kg/injection, schedule: Q01DX009 (ip), vehicle: saline with Tween-80 101 % of control

Fc1c(F)c(F)[c]([Sn]([c]2ccccc2)([c]2ccccc2)[c]2ccccc2)c(F)c1F
inactive: endpoint: mean survival time, dose: 12.5 mg/kg/injection, schedule: Q04DX003 (ip), vehicle: saline with Tween-80 88 % of control | endpoint: mean survival time, dose: 25.0 mg/kg/injection, schedule: Q04DX003 (ip), vehicle: saline with Tween-80 88 % of control

Clc1c(Cl)c(Cl)[c]([Hg][c]2c(Cl)c(Cl)c(Cl)c(Cl)c2Cl)c(Cl)c1Cl
inactive: [2] 100 % of control | endpoint: mean survival time, dose: 25.0 mg/kg/injection, schedule: Q04DX003 (ip), vehicle: saline 103 % of control | [3] 103 % of control | endpoint: mean survival time, dose: 50.0 mg/kg/injection, schedule: Q04DX003 (ip), vehicle: saline 97 % of control | [4] 97 % of control | [5] 96 % of control | [6] 97 % of control

O=C1c2cc(Cl)ccc2OCC1Cl (stereo not drawn)
inactive: [7] 87 % of control | [8] 91 % of control | [9] 93 % of control

O=[N+]([O-])c1ccc(S(=O)(=O)C/C=C/CCl)c([N+](=O)[O-])c1
inactive: [2] 102 % of control | [3] 95 % of control | [7] 94 % of control

C[CH2][Pb]([CH2]C)([CH2]C)[O]C(=O)COc1ccccc1
inactive: endpoint: mean survival time, dose: 1.5 mg/kg/injection, schedule: Q04DX003 (ip), vehicle: Klucel (hydroxypropylcellulose) (HPC) 104 % of control | endpoint: mean survival time, dose: 3.0 mg/kg/injection, schedule: Q04DX003 (ip), vehicle: Klucel (hydroxypropylcellulose) (HPC) 97 % of control | endpoint: mean survival time, dose: 6.0 mg/kg/injection, schedule: Q04DX003 (ip), vehicle: Klucel (hydroxypropylcellulose) (HPC) 100 % of control | endpoint: mean survival time, dose: 12.0 mg/kg/injection, schedule: Q04DX003 (ip), vehicle: Klucel (hydroxypropylcellulose) (HPC) 104 % of control | endpoint: mean survival time, dose: 24.0 mg/kg/injection, schedule: Q04DX003 (ip), vehicle: Klucel (hydroxypropylcellulose) (HPC) 86 % of control

O=C(COC(=O)C1CCCCCCC1)c1ccc(Br)cc1
inactive: [7] 100 % of control | [5] 94 % of control | [8] 107 % of control | [10] 96 % of control | [9] 97 % of control | [11] 97 % of control

COc1ccc(CN(CCO)CCCCCCN(CCO)Cc2ccc(OC)cc2)cc1
inactive: [2] 93 % of control | [3] 96 % of control | [4] 98 % of control | endpoint: median survival time, dose: 50.0 mg/kg/injection, schedule: Q04DX002 (ip), vehicle: saline 100 % of control | endpoint: median survival time, dose: 100.0 mg/kg/injection, schedule: Q04DX002 (ip), vehicle: saline 100 % of control

Cc1cc(S(=O)(=O)O)c(N)cc1Cl
inactive: [4] 106 % of control | [12] 92 % of control | endpoint: mean survival time, dose: 400.0 mg/kg/injection, schedule: Q01DX009 (ip), vehicle: saline with Tween-80 103 % of control

NC1CCCN(Cc2ccccc2)C1 (stereo not drawn)
inactive: endpoint: mean survival time, dose: 75.0 mg/kg/injection, schedule: Q01DX001 (ip), vehicle: saline 95 % of control | endpoint: mean survival time, dose: 150.0 mg/kg/injection, schedule: Q01DX001 (ip), vehicle: saline 97 % of control | endpoint: mean survival time, dose: 300.0 mg/kg/injection, schedule: Q01DX001 (ip), vehicle: saline 97 % of control

CCOc1ccc2nc3cc(N)ccc3c(N)c2c1
inactive: endpoint: mean survival time, dose: 25.0 mg/kg/injection, schedule: Q01DX009 (ip), vehicle: saline 101 % of control | endpoint: mean survival time, dose: 50.0 mg/kg/injection, schedule: Q01DX009 (ip), vehicle: saline 113 % of control | [1] 122 % of control and 101 % of control | [6] 114 % of control | endpoint: mean survival time, dose: 200.0 mg/kg/injection, schedule: Q04DX003 (ip), vehicle: saline 105 % of control | endpoint: mean survival time, dose: 400.0 mg/kg/injection, schedule: Q04DX003 (ip), vehicle: saline 105 % of control

O=C(CCN1CCCCC1)c1ccc(C(F)(F)F)cc1
inactive: endpoint: mean survival time, dose: 3.13 mg/kg/injection, schedule: Q01DX009 (ip), vehicle: water 90 % of control | endpoint: mean survival time, dose: 6.25 mg/kg/injection, schedule: Q01DX009 (ip), vehicle: water 90 % of control

CCCN1CCc2cc3c(cc2C1)OCO3
inactive: endpoint: mean survival time, dose: 100.0 mg/kg/injection, schedule: Q01DX001 (ip), vehicle: saline 100 % of control

Cc1nc(-c2ccc(N=Cc3ccc(N(CCOS(C)(=O)=O)CCOS(C)(=O)=O)cc3C)cc2)c(C)s1
inactive: endpoint: mean survival time, dose: 5.0 mg/kg/injection, schedule: Q01DX001 (ip), vehicle: Klucel (hydroxypropylcellulose) (HPC) 101 % of control | endpoint: mean survival time, dose: 10.0 mg/kg/injection, schedule: Q01DX001 (ip), vehicle: Klucel (hydroxypropylcellulose) (HPC) 104 % of control | endpoint: mean survival time, dose: 20.0 mg/kg/injection, schedule: Q01DX001 (ip), vehicle: Klucel (hydroxypropylcellulose) (HPC) 104 % of control | endpoint: mean survival time, dose: 40.0 mg/kg/injection, schedule: Q01DX001 (ip), vehicle: Klucel (hydroxypropylcellulose) (HPC) 115 % of control

CN1C(=O)c2ccccc2C1(/N=C/c1ccccc1)c1ccccc1 (stereo not drawn)
inactive: [5] 96 % of control | [10] 96 % of control | [11] 96 % of control

O=P(O)(O)C1c2ccccc2-c2ccccc21
inactive: [4] 100 % of control | [5] 97 % of control | [12] 94 % of control | [10] 96 % of control | [11] 100 % of control

C[C@]12CCCC[C@@H]1CC[C@@H]1[C@@H]2[C@@H](O)C[C@]2(C)[C@@H](O)CC[C@@H]12
inactive: [5] 93 % of control | [10] 101 % of control

CC(=O)NC(CSCc1c2ccccc2c(C)c2c1ccc1ccccc12)C(=O)O (stereo not drawn)
inactive: [3] 103 % of control | [4] 95 % of control | [5] 93 % of control | [12] 103 % of control | [10] 90 % of control
